Test results published in patent US11634397B2, “Process and intermediates for the preparation of Fluensulfone” (ADAMA MAKHTESHIM LTD., priority 2018, dated 2023).

Assay: Solubility of 2-mercaptothiazole estimated in a variety of solvents at room temperature
Assay type: physicochemical
Conditions: stirred overnight
Protocol: The solubility of 2-mercaptothiazole was estimated in a variety of solvents at room temperature. Large amount of 2-mercaptothiazole was added to the tested solvent. The mixture was stirred overnight. The residual solid was removed by filtration. Then the solution was analyzed by quantitative analysis vs. analytical standard to determine the concentration of the 2-mercaptothiazole.

Q: With `Sc1nccs1` [2-mercaptothiazole] as the compound, how does the “Solubility of 2-mercaptothiazole” value (solvent 1,2-dichlorobenzene) read?
A: Its value is 1.91 wt %.

Q: What about the “Solubility of 2-mercaptothiazole” value (solvent 1,2-dichloroethane) of the same compound?
A: The value was 8.43 wt %.

Q: And the “Solubility of 2-mercaptothiazole” value (solvent CPME (cyclopentyl methyl ether))?
A: The value was 6.5 wt %.

Q: And the “Solubility of 2-mercaptothiazole” value (solvent IBN (iso-butyronitrile))?
A: Its value is 20.2 wt %.

Q: And the “Solubility of 2-mercaptothiazole” value (solvent IPAc (isopropyl acetate))?
A: Its value is 14.8 wt %.

Q: And the “Solubility of 2-mercaptothiazole” value (solvent MCB (mono-chlorobenzene))?
A: Its value is 2.4 wt %.

Q: What about the “Solubility of 2-mercaptothiazole” value (solvent NBN (n-butyronitrile)) of the same compound?
A: Its value is 28.9 wt %.

Q: What about the “Solubility of 2-mercaptothiazole” value (solvent pentanol) of the same compound?
A: The value was 19.1 wt %.

Q: What about the “Solubility of 2-mercaptothiazole” value (solvent toluene) of the same compound?
A: The value was 2.2 wt %.
